Consider 6 molecules from ChEMBL document CHEMBL4038295, “Calofolic acids A-F, chromanones from the bark of Calophyllum scriblitifolium with vasorelaxation activity” (Bioorg Med Chem Lett, 2017).

In general, IC50 refers to the concentration that inhibits the measured activity by half.

The test relates to Thoracic aorta. As to the kind of experiment: Vasorelaxing effect in endothelium-intact Wistar rat thoracic aorta ring assessed as inhibition of phenylephrine-stimulated contraction. It is filed as functional, tissue-based.
Consider `CCCC[C@H](CC(=O)O)c1c2c(c(O)c3c1O[C@H](C)[C@H](C)C3=O)C=CC(C)(C)O2`, for which the concentration for half-maximal inhibition (IC50) was 12.1 µM and the inhibition result is “Dose-dependent effect”.
As for `CCC[C@H](CC(=O)O)c1c2c(c(O)c3c1O[C@H](C)[C@@H](C)C3=O)C=CC(C)(C)O2`, the IC50 worked out at 13.8 µM and the inhibition result was “Dose-dependent effect”.
Consider `CC[C@H](CC(=O)O)c1c2c(c(O)c3c1O[C@H](C)[C@H](C)C3=O)C=CC(C)(C)O2`, for which the half-inhibitory concentration (IC50) was found to be 6.07 µM and the inhibition result was “Dose-dependent effect”.
Turning to `CC[C@H](CC(=O)O)c1c2c(c(O)c3c1O[C@H](C)[C@@H](C)C3=O)C=CC(C)(C)O2`, the 50% inhibitory concentration (IC50) was 10.4 µM and the inhibition result is “Dose-dependent effect”.
Consider `CCC[C@H](CC(=O)O)c1c2c(c(O)c3c1O[C@H](C)[C@H](C)C3=O)C=CC(C)(C)O2`, for which the IC50 amounted to 18.9 µM and the inhibition result is “Dose-dependent effect”.
Take `C[C@H](CC(=O)O)c1c2c(c(O)c3c1O[C@H](C)[C@H](C)C3=O)C=CC(C)(C)O2`: the IC50 amounted to 10.3 µM and the inhibition entry is “Dose-dependent effect”.
